The source of these data is the NIST ThermoML archive (doi:10.1021/je500845d).

Each structure is given as a SMILES string. Numbers after ± are expanded uncertainties.

The conditions of data set [1]: Crystal; DTA.
Data set [2] in a line: Molar enthalpy of transition or fusion. The note with it: Crystal; DSC.

As for `O=C(O)C(O)c1ccccc1Br` (stereo not given) [2-(2-bromophenyl)-2-hydroxyacetic acid], in data set [1], the Normal melting temperature turned out to be 86.8 ± 1 °C. Also, in data set [2], the “Molar enthalpy of transition or fusion” value worked out at 5.33 ± 0.311 kcal/mol.
For the compound `O=C(O)C(O)c1cccc(Br)c1` (stereo not given) [2-(3-bromophenyl)-2-hydroxyacetic acid], the Normal melting temperature in data set [1] was found to be 119.6 ± 1 °C. For the same compound, in data set [2], the “Molar enthalpy of transition or fusion” value came out at 7.19 ± 0.311 kcal/mol.
For `O=C(O)C(O)c1ccc(Br)cc1` (stereo not given) [2-(4-bromophenyl)-2-hydroxyacetic acid], in that order: 118.1 ± 1 °C and 4.25 ± 0.311 kcal/mol.
For `O=C(O)C(O)c1ccc(Cl)cc1F` (stereo not given) [2-(4-chloro-2-fluorophenyl)-2-hydroxyacetic acid], in that order: 90.5 ± 1 °C and 4.23 ± 0.311 kcal/mol.
Consider `O=C(O)C(O)c1ccc(Cl)cc1` (stereo not given) [2-(4-chlorophenyl)-2-hydroxyacetic acid], for which the Normal melting temperature in data set [1] turned out to be 120.1 ± 1 °C. In addition, in data set [2], the “Molar enthalpy of transition or fusion” value is 3.87 ± 0.311 kcal/mol.
The like results for `O=C(O)C(O)c1ccc(F)cc1Cl` (stereo not given) [2-chloro-4-fluoromandelic acid] were, in that order, 97.6 ± 1 °C and 4.35 ± 0.311 kcal/mol.
For the compound `O=C(O)C(O)c1ccccc1I` (stereo not given) [2-hydroxy-2-(2-iodophenyl)acetic acid], the Normal melting temperature in data set [1] amounted to 109.0 ± 1 °C. In addition, in data set [2], the “Molar enthalpy of transition or fusion” value worked out at 5.98 ± 0.311 kcal/mol.
As to `O=C(O)C(O)c1cccc(I)c1` (stereo not given) [2-hydroxy-2-(3-iodophenyl)acetic acid], the Normal melting temperature in data set [1] amounted to 97.0 ± 1 °C. For the same compound, the “Molar enthalpy of transition or fusion” value in data set [2] was 5.88 ± 0.311 kcal/mol.
With `O=C(O)C(O)c1ccc(I)cc1` (stereo not given) [2-hydroxy-2-(4-iodophenyl)acetic acid], in data set [1], the Normal melting temperature amounted to 142.2 ± 1 °C. The “Molar enthalpy of transition or fusion” value in data set [2] turned out to be 7.27 ± 0.311 kcal/mol.
The like results for `Cc1cccc(C(O)C(=O)O)c1` (stereo not given) [2-hydroxy-2-(m-tolyl)acetic acid] were, in that order, 92.4 ± 1 °C and 6.12 ± 0.311 kcal/mol.
For `Cc1ccccc1C(O)C(=O)O` (stereo not given) [2-hydroxy-2-(o-tolyl)acetic acid], in that order: 103.8 ± 1 °C and 5.14 ± 0.311 kcal/mol.
The like results for `Cc1ccc(C(O)C(=O)O)cc1` (stereo not given) [2-hydroxy-2-(p-tolyl)acetic acid] were, in that order, 143.8 ± 1 °C and 6.12 ± 0.311 kcal/mol.
As for `O=C(O)[C@@H](O)c1ccccc1Br` [(S)-2-(2-bromophenyl)-2-hydroxyacetic acid], in data set [1], the Normal melting temperature was 119.4 ± 1 °C. In data set [2], the “Molar enthalpy of transition or fusion” value was found to be 5.35 ± 0.311 kcal/mol.
The like results for `O=C(O)[C@@H](O)c1ccc(F)cc1Cl` [(S)-2-(2-chloro-4-fluorophenyl)-2-hydroxyacetic acid] were, in that order, 132.8 ± 1 °C and 4.8 ± 0.311 kcal/mol.
As to `O=C(O)[C@@H](O)c1cccc(Br)c1` [(S)-2-(3-bromophenyl)-2-hydroxyacetic acid], the Normal melting temperature in data set [1] came to 103.1 ± 1 °C. For the same compound, the “Molar enthalpy of transition or fusion” value in data set [2] worked out at 5.5 ± 0.311 kcal/mol.
The like results for `O=C(O)[C@@H](O)c1ccc(Br)cc1` [(S)-2-(4-bromophenyl)-2-hydroxyacetic acid] were, in that order, 127.6 ± 1 °C and 4.11 ± 0.311 kcal/mol.
For `O=C(O)[C@@H](O)c1ccc(Cl)cc1F` [(S)-2-(4-chloro-2-fluorophenyl)-2-hydroxyacetic acid], in that order: 107.8 ± 1 °C and 3.61 ± 0.287 kcal/mol.
The like results for `O=C(O)[C@@H](O)c1ccc(Cl)cc1` [(S)-2-(4-chlorophenyl)-2-hydroxyacetic acid] were, in that order, 119.6 ± 1 °C and 6.48 ± 0.311 kcal/mol.
For `Cc1cccc([C@H](O)C(=O)O)c1` [(S)-2-hydroxy-2-(m-tolyl)acetic acid], the Normal melting temperature in data set [1] amounted to 109.7 ± 1 °C. For the same compound, the “Molar enthalpy of transition or fusion” value in data set [2] was 6.98 ± 0.311 kcal/mol.
Take `Cc1ccc([C@H](O)C(=O)O)cc1` [(S)-2-hydroxy-2-(p-tolyl)acetic acid]: the Normal melting temperature in data set [1] stood at 131.5 ± 1 °C. Moreover, in data set [2], the “Molar enthalpy of transition or fusion” value is 5.35 ± 0.311 kcal/mol.
